Bounds are passed on as bounds.

In the experiment the target is T1, human m4 receptors (Homo sapiens, UniProt P08173).
T1 construct: expressed in transfected cells; host or cells: CHO K1
T1 sequence (P08173 whole entry): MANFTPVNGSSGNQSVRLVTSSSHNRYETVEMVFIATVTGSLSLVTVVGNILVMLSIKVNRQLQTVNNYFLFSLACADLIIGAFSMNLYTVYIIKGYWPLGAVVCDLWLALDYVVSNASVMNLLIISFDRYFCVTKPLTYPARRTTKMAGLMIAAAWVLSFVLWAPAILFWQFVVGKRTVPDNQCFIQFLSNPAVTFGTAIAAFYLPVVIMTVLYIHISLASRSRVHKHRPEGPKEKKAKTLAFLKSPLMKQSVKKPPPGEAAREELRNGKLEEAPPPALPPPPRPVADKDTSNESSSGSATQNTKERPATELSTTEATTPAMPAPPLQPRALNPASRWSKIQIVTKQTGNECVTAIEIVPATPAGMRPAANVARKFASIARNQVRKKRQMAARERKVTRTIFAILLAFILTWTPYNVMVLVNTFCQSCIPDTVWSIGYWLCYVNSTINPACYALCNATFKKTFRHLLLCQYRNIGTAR
Briefly: M4 assay: cyclic AMP accumulation/production in pertussis toxin-treated CHO m4 cells (% maximum stimulation compared to oxotremorine-M). The conditions noted are these: read-out: % Maximum Stimulation Compared to Oxotremorine-M. The class given is cell-based. On the procedure:
II. M4 muscarinic receptor […] assay:
Cyclic AMP Accumulation in Pertussis Toxin-Treated CHO m4 Cells.
CHO K1 cells transfected with human m4 receptors were grown to near confluency in T-150 flasks using Dulbecco's Modified Eagle Medium (DMEM) containing 10% fetal bovine serum. Cells were detached with 0.05% trypsin, 0.53 mM EDTA, and were suspended in medium containing 100 ng/ml pertussis toxin. Cells were plated at 30,000 cells per well into 96 well plates. Eighteen to twenty hours later the medium was removed and the cells were washed with serum-free medium. Attached cells were incubated at 37_C for one hour after addition of […] of serum free DMEM containing 1 mM 3-isobutyl-1-methylxanthine and 1 mM forskolin plus or minus drugs being tested. Incubations were terminated with […] per well of serum free DMEM containing 0.3%, triton-X-100. After stopping incubations the plates were allowed to sit for 20 minutes to extract cAMP and samples were then diluted 2.5-fold and were assayed using the scintillation proximity assay of Amersham (Arlington Heights, Ill.).
Representative results from the M4 assay are as follows:
Stimulation of cyclic AMP Production in CHO-m4 cells.
Take `CN(C)C=Nc1ccc2c(c1)[C@@H](NC(=O)c1ccc3ccccc3c1)[C@H](O)C2` (relative stereo) [Compound 63]: the Emax worked out at 13%. For `CN(C)C=Nc1ccc2c(c1)[C@@H](NC(=O)c1cc(Cl)cc(Cl)c1)[C@H](O)C2` (relative stereo) [Compound 58], the Emax is 74%. In the case of `O=C(N[C@H]1c2cc(N=CN3CCCC3)ccc2C[C@@H]1O)c1cccc([N+](=O)[O-])c1` (relative stereo) [Compound 25], the Emax stood at 43%. As for `CN(C)C=Nc1ccc2c(c1)[C@@H](NC(=O)c1cc3ccccc3s1)[C@H](O)C2` (relative stereo) [Compound 69], the Emax came out at 14%. On to `O=C(N[C@H]1c2cc(N=CN3CCCC3)ccc2C[C@@H]1O)c1cc(F)cc(F)c1` (relative stereo) [Compound 23], for which the Emax is below 20%. As to `CN(C)C=Nc1ccc2c(c1)[C@@H](NC(=O)c1ccc(C(F)(F)F)cc1)[C@H](O)C2` (relative stereo) [Compound 75], the Emax was 6%. Turning to `CN(C)C=Nc1ccc2c(c1)[C@@H](NC(=O)c1cc(F)c(F)c(F)c1)[C@H](O)C2` (relative stereo) [Compound 65], the Emax was determined as 30%. In the case of `O=C(N[C@H]1c2cc(N=CN3CCCC3)ccc2C[C@@H]1O)c1cc(F)c(F)c(F)c1` (relative stereo) [Compound 39], the Emax was 43%. With `O=C(N[C@@H]1c2cc(N=CN3CCCC3)ccc2C[C@H]1O)c1c(Cl)cc(Cl)cc1Cl` (relative stereo) [Compound 47], the Emax was below 20%.

`Cc1cc(C)c(C(=O)N[C@H]2c3cc(N=CN4CCCC4)ccc3C[C@@H]2O)c(C)c1` (relative stereo) [Compound 27]: the Emax was below 20%. With `O=C(N[C@@H]1c2cc(N=CN3CCCCC3)ccc2C[C@H]1O)c1cc(F)cc(F)c1` (relative stereo) [Compound 98] the figure was 73%. Under `CN(C)C=Nc1ccc2c(c1)[C@@H](NC(=O)C1CCCC1)[C@H](O)C2` (relative stereo) [Compound 62] stands 27%.

As for `O=C(N[C@@H]1c2cc(N=CN3CCCC3)ccc2C[C@H]1O)c1c(Cl)cccc1Cl` (relative stereo) [Compound 46], the Emax was 154%. With `N#Cc1cccc(C(=O)N[C@H]2c3cc(N=CN4CCCC4)ccc3C[C@@H]2O)c1` (relative stereo) [Compound 38], the Emax is below 20%. In the case of `O=C(N[C@H]1c2cc(N=CN3CCCC3)ccc2C[C@@H]1O)c1cccc(F)c1F` (relative stereo) [Compound 24], the Emax amounted to 22%.

Consider `O=C(N[C@H]1c2cc(N=CN3CCCC3)ccc2C[C@@H]1O)c1cc(Cl)cc(Cl)c1` (relative stereo) [Compound 14], for which the Emax was determined as 100%.

Regarding `CN(C)C=Nc1ccc2c(c1)[C@@H](NC(=O)c1ccccc1)[C@H](O)C2` (relative stereo) [Compound 57], the Emax turned out to be 5%.

Take `CC(=Nc1ccc2c(c1)[C@@H](NC(=O)c1ccc(Cl)c(Cl)c1)[C@H](O)C2)N(C)C` (relative stereo) [Compound 76]: the Emax is 130%. With `O=C(N[C@H]1c2cc(N=CN3CCCC3)ccc2C[C@@H]1O)c1cccc(Cl)c1Cl` (relative stereo) [Compound 31] the figure was 45%. Take `CN(C)C=Nc1ccc2c(c1)C(NS(=O)(=O)c1ccc(Cl)c(Cl)c1)C(O)C2` (centres unmarked) [Compound 72]: the Emax worked out at 4%. With `CCCCOc1ccc(C(=O)N[C@@H]2c3cc(N=CN(C)C)ccc3C[C@H]2O)cc1` (relative stereo) [Compound 59] the figure was 22%. `CCc1ccc(C(=O)N[C@@H]2c3cc(N=CN(C)C)ccc3C[C@H]2O)cc1` (relative stereo) [Compound 67]: the Emax turned out to be 7%. In the case of `CN(C)C=Nc1ccc2c(c1)[C@@H](NC(=O)C(F)(F)F)[C@H](O)C2` (relative stereo) [Compound 66], the Emax stood at 0%.

`CCCc1ccc(C(=O)N[C@H]2c3cc(N=CN4CCCC4)ccc3C[C@@H]2O)cc1` (relative stereo) [Compound 26]: the Emax was below 20%. For `O=C(N[C@@H]1c2cc(N=CN3CCCCC3)ccc2C[C@H]1O)c1cccc(Cl)c1Cl` (relative stereo) [Compound 88], the Emax was determined as 52%. With `CN(C)C=Nc1ccc2c(c1)[C@@H](NC(=O)c1ccc(Cl)nc1)[C@H](O)C2` (relative stereo) [Compound 74], the Emax stood at 8%. With `O=C(N[C@H]1c2cc(N=CN3CCCC3)ccc2C[C@@H]1O)c1ccc([N+](=O)[O-])cc1Cl` (relative stereo) [Compound 20] the figure was 69%.

Consider `O=C(N[C@H]1c2cc(N=CN3CCCC3)ccc2C[C@@H]1O)c1cccc2ccccc12` (relative stereo) [Compound 15], for which the Emax was determined as 76%.

`O=C(N[C@H]1c2cc(N=CN3CCCC3)ccc2C[C@@H]1O)c1cc(F)ccc1F` (relative stereo) [Compound 32]: the Emax is below 20%. With `CCCCc1ccc(C(=O)N[C@@H]2c3cc(N=CN4CCCC4)ccc3C[C@H]2O)cc1` (relative stereo) [Compound 45] the figure was below 20%; with `COc1cccc(C(=O)N[C@H]2c3cc(N=CN4CCCC4)ccc3C[C@@H]2O)c1` (relative stereo) [Compound 34], 45%; with `CN(C)C=Nc1ccc2c(c1)[C@@H](NC(=O)c1sccc1Cl)[C@H](O)C2` (relative stereo) [Compound 68], 0%. For `O=C(N[C@@H]1c2cc(N=CN3CCCC3)ccc2C[C@H]1O)c1cc(F)c(F)c(F)c1F` (relative stereo) [Compound 40], the Emax came out at 96%. Take `O=C(N[C@H]1c2cc(N=CN3CCCC3)ccc2C[C@@H]1O)c1cccnc1Cl` (relative stereo) [Compound 12]: the Emax was 26%. Turning to `O=C(N[C@H]1c2cc(N=CN3CCCC3)ccc2C[C@@H]1O)c1c(F)ccc(F)c1F` (relative stereo) [Compound 29], the Emax was below 20%.

Regarding `O=C(N[C@H]1c2cc(N=CN3CCCC3)ccc2C[C@@H]1O)c1cccc(F)c1` (relative stereo) [Compound 30], the Emax is below 20%. Consider `CN(C)C=Nc1ccc2c(c1)[C@@H](NC(=O)c1cccc(C#N)c1)[C@H](O)C2` (relative stereo) [Compound 61], for which the Emax is 39%.

Take `O=C(N[C@H]1c2cc(N=CN3CCCC3)ccc2C[C@@H]1O)c1cccs1` (relative stereo) [Compound 21]: the Emax was 23%. As to `O=C(N[C@H]1c2cc(N=CN3CCCC3)ccc2C[C@@H]1O)C1CCCCC1` (relative stereo) [Compound 11], the Emax came to 34%. With `CN(C)C=Nc1ccc2c(c1)[C@@H](NC(=O)c1cccc3ccccc13)[C@H](O)C2` (relative stereo) [Compound 71] the figure was 95%; with `O=C(CSc1ccccc1)N[C@H]1c2cc(N=CN3CCCC3)ccc2C[C@@H]1O` (relative stereo) [Compound 28], below 20%; with `O=C(N[C@@H]1c2cc(N=CN3CCCCC3)ccc2C[C@H]1O)c1cc(Cl)cc(Cl)c1` (relative stereo) [Compound 97], 36%. For the compound `CN(C)C=Nc1ccc2c(c1)[C@@H](NC(=O)c1cc(F)cc(C(F)(F)F)c1)[C@H](O)C2` (relative stereo) [Compound 64], the Emax worked out at 52%. Turning to `COc1cc(OC)cc(C(=O)N[C@H]2c3cc(N=CN4CCCC4)ccc3C[C@@H]2O)c1` (relative stereo) [Compound 36], the Emax was below 20%. Consider `O=C(N[C@H]1c2cc(N=CN3CCCC3)ccc2C[C@@H]1O)c1ccc2ccccc2c1` (relative stereo) [Compound 17], for which the Emax was found to be 56%. For the compound `O=C(N[C@@H]1c2cc(N=CN3CCCC3)ccc2C[C@H]1O)C1CCC1` (relative stereo) [Compound 41], the Emax is below 20%.

Turning to `O=C(N[C@@H]1c2cc(N=CN3CCCC3)ccc2C[C@H]1O)c1ccccc1Cl` (relative stereo) [Compound 44], the Emax was 41%. As for `CCCCc1ccc(C(=O)N[C@@H]2c3cc(N=CN(C)C)ccc3C[C@H]2O)cc1` (relative stereo) [Compound 70], the Emax is 18%. For `O=C(N[C@H]1c2cc(N=CN3CCCC3)ccc2C[C@@H]1O)C(F)(F)F` (relative stereo) [Compound 19], the Emax was below 20%. In the case of `CN(C)C=Nc1ccc2c(c1)[C@@H](NC(=O)c1cccnc1Cl)[C@H](O)C2` (relative stereo) [Compound 73], the Emax amounted to 11%. With `O=C(N[C@H]1c2cc(N=CN3CCCC3)ccc2C[C@@H]1O)c1ccc(F)c(F)c1F` (relative stereo) [Compound 33], the Emax came out at 45%.

On to `O=C(N[C@H]1c2cc(N=CN3CCCC3)ccc2C[C@@H]1O)c1ccc(C(F)(F)F)cc1` (relative stereo) [Compound 18], for which the Emax is 61%. Under `O=C(N[C@@H]1c2cc(N=CN3CCCCC3)ccc2C[C@H]1O)c1ccc(Cl)c(Cl)c1` (relative stereo) [Compound 77] stands 214%; under `Cc1cccc(C(=O)N[C@H]2c3cc(N=CN4CCCC4)ccc3C[C@@H]2O)c1` (relative stereo) [Compound 37], 76%; under `O=C(N[C@H]1c2cc(N=CN3CCCC3)ccc2C[C@@H]1O)c1ccccc1C(F)(F)F` (relative stereo) [Compound 35], 65%.

As for `N#Cc1ccc(C(=O)N[C@H]2c3cc(N=CN4CCCC4)ccc3C[C@@H]2O)cc1` (relative stereo) [Compound 13], the Emax is below 20%.

(Values after patent US6211364A, “Process for preparing indane-like compounds” (Eli Lilly and Company, priority 1999, dated 2001).)
